Laboratory results taken from PubChem BioAssay (NCI).
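Assay format: 96-well plates, 48-hour exposure. Here, GI50 denotes the concentration required for 50% inhibition of growth. At the TGI there is no net growth.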

Experiments:
Assay in all cases: inhibition of tumour cell growth, NCI panel, 48 h
[1] = tested on: HCT-116 colon
[2] = tested on: T-47D breast
[3] = tested on: PC-3 prostate
[4] = tested on: NCI-H23 lung
[5] = tested on: SK-MEL-2 melanoma
[6] = tested on: SF-295 CNS
[7] = tested on: NCI/ADR-RES ovarian
[8] = tested on: BT-549 breast
[9] = tested on: MDA-MB-435
[10] = tested on: A498 renal
[11] = tested on: KM12 colon
[12] = tested on: HCT-15 colon
[13] = tested on: OVCAR-4 ovarian
[14] = tested on: MALME-3M melanoma
[15] = tested on: MCF7 breast
[16] = tested on: NCI-H226 lung
[17] = tested on: UACC-62 melanoma
[18] = tested on: IGROV1 ovarian
[19] = tested on: HOP-92 NSCLC
[20] = tested on: K-562 leukemia
[21] = tested on: SF-268 CNS
[22] = tested on: SK-MEL-28 melanoma
[23] = tested on: 786-0 renal
[24] = tested on: SW-620 colon
[25] = tested on: DU-145 prostate
[26] = tested on: SK-OV-3 ovarian
[27] = tested on: U251 CNS
[28] = tested on: LOX IMVI melanoma
[29] = tested on: NCI-H522 lung
[30] = tested on: MOLT-4 leukemia
[31] = tested on: OVCAR-8 ovarian
[32] = tested on: MDA-MB-231 breast
[33] = tested on: MDA-MB-468 breast
[34] = tested on: CCRF-CEM leukemia
[35] = tested on: CAKI-1 renal
[36] = tested on: ACHN renal
[37] = tested on: SF-539 CNS
[38] = tested on: RPMI-8226 leukemia
[39] = tested on: NCI-H460 lung
[40] = tested on: OVCAR-5 ovarian
[41] = tested on: COLO 205 colon
[42] = tested on: HL-60(TB) leukemia
[43] = tested on: SR leukemia
[44] = tested on: HOP-62 NSCLC
[45] = tested on: A549 NSCLC
[46] = tested on: TK-10 renal
[47] = tested on: HS 578T breast
[48] = tested on: SNB-75 CNS
[49] = tested on: SN12C renal
[50] = tested on: RXF 393 renal
[51] = tested on: EKVX NSCLC
[52] = tested on: UACC-257 melanoma
[53] = tested on: SNB-19 CNS
[54] = tested on: M14 melanoma
[55] = tested on: SK-MEL-5 melanoma
[56] = tested on: OVCAR-3 ovarian
[57] = tested on: HT29 colon
[58] = tested on: UO-31 renal
[59] = tested on: HCC-2998 colon

In the case of `O=C(N/N=C/c1c[nH]c2ccccc12)Nc1ccccc1Cl`, the GI50 [1] is reported as 70.9 nM, the TGI [1] is reported as 3820 nM and the GI50 [2] is reported as 386 nM. It also gave a TGI [2] of 26600 nM, a GI50 [3] of 428 nM and a TGI [3] of 15400 nM. It also gave a GI50 [4] of 424 nM, a TGI [4] of 6890 nM and a GI50 [5] of 222 nM. The TGI [5] was 11300 nM, the GI50 [6] was 255 nM and the TGI [6] was 2520 nM. The GI50 [7] was 57.4 nM, the TGI [7] was 613 nM and the GI50 [8] was 311 nM. The TGI [8] was 6310 nM, the GI50 [9] was 27 nM and the TGI [9] was 89.1 nM. It also gave a GI50 [10] of 5230 nM, a TGI [10] of 18500 nM and a GI50 [11] of 172 nM. For the same compound, the TGI [11] was 5190 nM, the GI50 [12] was 65.8 nM and the TGI [12] was 12000 nM. The GI50 [13] was 2780 nM, the TGI [13] was 29700 nM and the GI50 [14] was 239 nM. It also gave a TGI [14] of 16000 nM, a GI50 [15] of 230 nM and a TGI [15] of 14300 nM. For the same compound, the GI50 [16] was 1690 nM, the TGI [16] was 19600 nM and the GI50 [17] was 148 nM. It also gave a TGI [17] of 4700 nM, a GI50 [18] of 358 nM and a TGI [18] of 12200 nM. It also gave a GI50 [19] of 869 nM, a TGI [19] of 8330 nM and a GI50 [20] of 39.1 nM. The TGI [20] was > 33800 nM, the GI50 [21] was 844 nM and the TGI [21] was 15000 nM. The GI50 [22] was 2520 nM, the TGI [22] was 19100 nM and the GI50 [23] was 493 nM. For the same compound, the TGI [23] was 3740 nM, the GI50 [24] was 117 nM and the TGI [24] was 16000 nM. For the same compound, the GI50 [25] was 432 nM, the TGI [25] was 11400 nM and the GI50 [26] was 526 nM. It also gave a TGI [26] of 20200 nM, a GI50 [27] of 288 nM and a TGI [27] of 11100 nM. It also gave a GI50 [28] of 274 nM, a TGI [28] of 10600 nM and a GI50 [29] of 42.2 nM. The TGI [29] was 328 nM, the GI50 [30] was 264 nM and the TGI [30] was 12600 nM. It also gave a GI50 [31] of 401 nM, a TGI [31] of 5760 nM and a GI50 [32] of 508 nM. The TGI [32] was 4930 nM, the GI50 [33] was 217 nM and the TGI [33] was 584 nM. For the same compound, the GI50 [34] was 178 nM, the TGI [34] was 10200 nM and the GI50 [35] was 257 nM. It also gave a TGI [35] of 13800 nM, a GI50 [36] of 665 nM and a TGI [36] of 14600 nM. For the same compound, the GI50 [37] was 205 nM, the TGI [37] was 684 nM and the GI50 [38] was 345 nM. The TGI [38] was 4760 nM, the GI50 [39] was 336 nM and the TGI [39] was 6200 nM. The GI50 [40] was 670 nM, the TGI [40] was 13100 nM and the GI50 [41] was 292 nM. It also gave a TGI [41] of 1070 nM, a GI50 [42] of 102 nM and a TGI [42] of 2630 nM. For the same compound, the GI50 [43] was 41.1 nM, the TGI [43] was 12900 nM and the GI50 [44] was 427 nM. The TGI [44] was 15600 nM, the GI50 [45] was 577 nM and the TGI [45] was 13000 nM. For the same compound, the GI50 [46] was 2410 nM, the TGI [46] was 20600 nM and the GI50 [47] was 285 nM. For the same compound, the TGI [47] was 15000 nM, the GI50 [48] was 232 nM and the TGI [48] was 2640 nM. The GI50 [49] was 433 nM, the TGI [49] was 6510 nM and the GI50 [50] was 292 nM. It also gave a TGI [50] of 2100 nM, a GI50 [51] of 500 nM and a TGI [51] of 13000 nM. For the same compound, the GI50 [52] was 598 nM, the TGI [52] was 22500 nM and the GI50 [53] was 590 nM. For the same compound, the TGI [53] was 16800 nM, the GI50 [54] was 111 nM and the TGI [54] was 11900 nM. The GI50 [55] was 254 nM, the TGI [55] was 1370 nM and the GI50 [56] was 96 nM. The TGI [56] was 2320 nM, the GI50 [57] was 119 nM and the TGI [57] was 986 nM. The GI50 [58] was 471 nM, the TGI [58] was 14900 nM and the GI50 [59] was 608 nM. It also gave a TGI [59] of 3490 nM.
